Laboratory results: ChEMBL document CHEMBL1121775, “Synthesis and antimalarial effects of N2-aryl-N4-[(dialkylamino)alkyl]- and N4-aryl-N2-[(dialkylamino)alkyl]-2,4-quinazolinediamines” (J Med Chem, 1981)
“And” between values parts separate entries of the source, which are not always exact repeats. Equal values may be shown once.

Columns and labels:
[1] = system: Plasmodium berghei; test: Antimalarial effect against trophozoite-induced Plasmodium berghei in mice (Mus musculus) after 20 mg/kg subcutaneous dose; format: functional
[2] = system: Plasmodium berghei; test: Antimalarial effect against trophozoite-induced Plasmodium berghei in mice (Mus musculus) at 320 mg/kg subcutaneous dose; format: functional
[3] = system: Plasmodium berghei; test: Antimalarial effect against trophozoite-induced Plasmodium berghei in mice (Mus musculus) after 40 mg/kg subcutaneous dose; format: functional
[4] = system: Plasmodium berghei; test: (§1) Antimalarial effect against trophozoite-induced Plasmodium berghei in mice (Mus musculus) at 640 mg/kg subcutaneous dose; format: functional; settings: 640 mg/kg
[5] = system: Plasmodium berghei; test: Antimalarial effect against trophozoite-induced Plasmodium berghei in mice (Mus musculus) at 160 mg/kg subcutaneous dose; format: functional
[6] = system: Mus musculus; test: Number of mice cured at a subcutaneous dose of 640 mg/kg.; format: functional
[7] = system: Plasmodium berghei; test: Antimalarial activity against trophozoite-induced Plasmodium berghei in mice (Mus musculus); format: functional
[8] = system: Plasmodium berghei; test: Antimalarial effect against trophozoite-induced Plasmodium berghei in mice (Mus musculus) at 80 mg/kg subcutaneous dose; format: functional
[9] = The ratio of SD90 of the quinine hydrochloride, to the SD90 of the test substance for the Dose of 6 mg/kg; format: functional
[10] = system: Mus musculus; test: Number of mice cured at a dose of 320 mg/kg sc; format: functional; settings: route subcutaneous
[11] = The ratio of SD90 of the quinine hydrochloride, to the SD90 of the test substance for the Dose of 9.3 mg/kg; format: functional
[12] = system: Plasmodium berghei; test: as §1; format: functional
[13] = The ratio of SD90 of the quinine hydrochloride, to the SD90 of the test substance for the Dose of 30 mg/kg; format: functional
[14] = The ratio of SD90 of the quinine hydrochloride, to the SD90 of the test substance for the Dose of 9.8 mg/kg; format: functional
[15] = system: Mus musculus; test: Number of mice cured at a subcutaneous dose of 160 mg/kg.; format: functional
[16] = system: Mus musculus; test: Number of mice cured at a dose of 640 mg/kg sc; format: functional; settings: route subcutaneous
[17] = system: Mus musculus; test: Number of mice cured at a subcutaneous dose of 320 mg/kg.; format: functional
[18] = The ratio of SD90 of the quinine hydrochloride, to the SD90 of the test substance for the Dose of 91 mg/kg; format: functional
[19] = The ratio of SD90 of the quinine hydrochloride, to the SD90 of the test substance for the Dose of 6.3 mg/kg; format: functional
[20] = system: Mus musculus; test: Number of toxic deaths at a dose of 320 mg/kg; format: toxicity, organism-based; parameters: dose 320 mg/kg; settings: in vivo
[21] = system: Mus musculus; test: Number of toxic deaths at a dose of 640 mg/kg; format: toxicity, organism-based; parameters: dose 640 mg/kg; settings: in vivo
[22] = The ratio of SD90 of the quinine hydrochloride, to the SD90 of the test substance for the Dose of >33 mg/kg; format: functional
[23] = The ratio of SD90 of the quinine hydrochloride, to the SD90 of the test substance for the Dose of 11 mg/kg; format: functional
[24] = The ratio of SD90 of the quinine hydrochloride, to the SD90 of the test substance for the Dose of 120 mg/kg; format: functional
[25] = The ratio of SD90 of the quinine hydrochloride, to the SD90 of the test substance for the Dose of >69 mg/kg; format: functional
[26] = system: Plasmodium berghei; test: Antimalarial activity against trophozoite-induced Plasmodium berghei in mice (Mus musculus) at 160 mg/kg subcutaneous dose; format: functional; settings: 160 mg/kg
[27] = system: Mus musculus; test: Antimalarial effect against trophozoite-induced Plasmodium berghei in mice (Mus musculus) at dosage of 160 mg/kg after subcutaneous administration; No. of mice (Mus musculus) surviving after 60 days 4; format: functional
[28] = system: Mus musculus; test: Antimalarial effect against trophozoite-induced Plasmodium berghei in mice (Mus musculus) at dosage of 80 mg/kg after subcutaneous administration; No. of mice (Mus musculus) surviving after 60 days 4; format: functional
[29] = system: Mus musculus; test: Number of mice cured at a dose 320 mg/kg sc; format: functional; settings: route subcutaneous
[30] = system: Mus musculus; test: Antimalarial effect against trophozoite-induced Plasmodium berghei in mice (Mus musculus) at dosage of 160 mg/kg after subcutaneous administration;; format: functional
[31] = system: Mus musculus; test: Antimalarial effect against trophozoite-induced Plasmodium berghei in mice (Mus musculus) at dosage of 80 mg/kg after subcutaneous administration; format: functional; settings: 80 mg/kg
[32] = system: Mus musculus; test: Antimalarial effect against trophozoite induced Plasmodium berghei in mice (Mus musculus) at dosage of 40 mg/kg after subcutaneous administration; format: functional
[33] = (§2) Number of mice cured at a dose of 40 mg/kg sc; format: functional; settings: route subcutaneous
[34] = system: Mus musculus; test: as §2; format: functional; settings: route subcutaneous
[35] = Number of mice cured at a dose of 80 mg/kg sc; format: functional; settings: route subcutaneous
[36] = The ratio of SD90 of the quinine htdrocloride, to the SD90 of the test substance for the Dose of 8.5 mg/kg; format: functional
[37] = The ratio of SD90 of the quinine hydrochloride, to the SD90 of the test substance for the Dose of 8.4 mg/kg; format: functional
[38] = The ratio of SD90 of the quinine hydrochloride, to the SD90 of the test substance for the Dose of 40 mg/kg; format: functional
[39] = The ratio of SD90 of the quinine hydrochloride, to the SD90 of the test substance for the Dose of 24 mg/kg; format: functional

CN1CCCC1CCNc1nc(Nc2cccc(Br)c2)nc2ccccc12 (centres undefined)
MST [1]: 1.6 days | MST [2]: 15 days | MST ([3]; 40 mg/kg): 5.2 days and 4.5 days | MST [4]: 20.3 days and 21.9 days | MST ([5]; 160 mg/kg): 11.4 days and 11.7 days | No. of cured ([6]; 640 mg/kg): 3 and 2 | SD90 [7]: 6 mg/kg/day | MST [8]: 7.8 days | Ratio [9]: 12.4

CN(C)C1CCC(Nc2nc(Nc3cc(Cl)cc(Cl)c3)nc3ccccc23)CC1 (stereo in doubt; 25)
MST ([1]; 20 mg/kg): 5.1 days | MST ([2]; 320 mg/kg): 24.9 days | MST ([3]; 40 mg/kg): 9.7 days and 9.3 days | MST ([5]; 160 mg/kg): 17.5 days and 16.9 days | No. of cured [10]: 4 | No. of cured [6]: 5 | SD90 [7]: 9.3 mg/kg/day | MST ([8]; 80 mg/kg): 10.9 days | Ratio [11]: 8

CCN(CC)CCNc1nc(Nc2ccc(Cl)c(Cl)c2)nc2ccc([N+](=O)[O-])cc12
MST ([1]; 20 mg/kg): 0.2 days and 0.3 days | MST ([2]; 320 mg/kg): 10.4 days and 10.9 days | MST ([3]; 40 mg/kg): 0.4 days and 0.7 days | MST [12]: 20.6 days | MST ([5]; 160 mg/kg): 7 days and 7.3 days | SD90 [7]: 30 mg/kg/day | MST ([8]; 80 mg/kg): 1.2 days and 1.5 days | Ratio [13]: 2.5

CN1CCCC1CCNc1nc(Nc2ccc(Cl)cc2)nc2ccccc12 (centres undefined)
MST [1]: 0.8 days | MST [2]: 14.4 days | MST ([3]; 40 mg/kg): 1.1 days and 0.8 days | MST [4]: 12.2 days and 22.3 days | MST ([5]; 160 mg/kg): 10.7 days and 10.2 days | No. of cured ([6]; 640 mg/kg): 2 and 3 | SD90 [7]: 9.8 mg/kg/day | MST [8]: 4.4 days | Ratio [14]: 7.6

CCN(CC)CCNc1nc(Nc2ccc(C(F)(F)F)cc2)nc2ccccc12
MST [1]: 0.3 days | MST ([3]; 40 mg/kg): 1.7 days and 1.1 days | MST [5]: 8.9 days | SD90 [7]: 91 mg/kg/day | MST [8]: 7.3 days | No. of survivals [15]: 1 | No. of survivals [16]: 4 | No. of survivals [17]: 4 | Ratio [18]: 0.8

Clc1ccc(Nc2nc(NCCCN3CCCC3)c3ccccc3n2)cc1Cl
MST [3]: 5.2 days | SD90 [7]: 12 mg/kg/day | No. of survivals [15]: 4 | No. of survivals [16]: 5 | Ratio [19]: 12

CCOc1ccc(Nc2nc(NCCN(CC)CC)c3cc(Cl)ccc3n2)cc1CN1CCCC1
MST [1]: 0.2 days | MST [2]: 7.8 days | MST ([3]; 40 mg/kg): 0.6 days and 0.2 days | MST [4]: 13.3 days and 12.8 days | MST ([5]; 160 mg/kg): 4.8 days and 4.6 days | SD90 [7]: >33 mg/kg/day | MST [8]: 1 days | No. of toxic deaths [20]: 2 | No. of toxic deaths [21]: 3 | Ratio [22]: <2.3

OC1CCCN(CCCNc2nc(Nc3ccc(Cl)cc3)nc3ccccc23)C1 (centres undefined)
MST [1]: 0.2 days | MST [2]: 17.5 days | MST ([3]; 40 mg/kg): 2.2 days and 2.5 days | MST [4]: 26.1 days and 23.9 days | MST ([5]; 160 mg/kg): 10.4 days and 11.3 days | SD90 [7]: 11 mg/kg/day | MST [8]: 4.6 days | No. of survivals [16]: 2 | Ratio [23]: 6.8 | No. of survivals [17]: 2

CCN(CC)CCNc1nc(Nc2cc(Cl)cc(Cl)c2)nc2ccccc12
MST [1]: 0.2 days | MST [2]: 12.2 days | MST [4]: 22.1 days and 20.8 days | MST ([5]; 160 mg/kg): 8.2 days and 9 days | SD90 [7]: 120 mg/kg/day | MST [8]: 3.2 days | No. of survivals ([16]; 640 mg/kg): 2 and 3 | Ratio [24]: 0.6

CCNCc1cc(Nc2nc(NC3CCC(N(C)C)CC3)c3ccccc3n2)ccc1OC (centres undefined)
MST [1]: 0.3 days | MST [3]: 0.5 days | MST [5]: 3.7 days | SD90 [7]: >69 mg/kg/day | MST [8]: 2.7 days | Ratio [25]: <1.1

CN(C)C1CCC(Nc2nc(Nc3cc(Cl)cc(Cl)c3)nc3ccccc23)CC1 (stereo in doubt; 26)
MST ([1]; 20 mg/kg): 3.6 days and 1.7 days | MST ([2]; 320 mg/kg): 27.8 days | MST [26]: 19.1 days and 24.9 days | MST [27]: 27.9 days | MST ([8]; 80 mg/kg): 11.6 days and 9 days | MST [28]: 23.9 days | No. of survivals [29]: 4 | No. of survivals ([15]; 160 mg/kg): 2 and 4 | No. of survivals [16]: 5 | No. of survivals [17]: 5

CCN(CC)C1CCC(Nc2nc(Nc3cc(Cl)cc(Cl)c3)nc3ccccc23)CC1 (stereo in doubt; 35)
MST ([1]; 20 mg/kg): 5.5 days | MST [26]: 24.9 days | MST [30]: 23.9 days | No. of survivals [10]: 5 | SD90 [7]: 8.5 mg/kg/day | MST [31]: 21.9 days | No. of survivals ([15]; 160 mg/kg): 4 and 3 | No. of survivals [16]: 5 | MST [32]: 9.6 days and 8.9 days | No. of survivals [33]: 2 | No. of survivals [34]: 2 | No. of survivals [35]: 4 | Ratio [36]: 8.8

CCN1CCC(CNc2nc(Nc3ccc(Cl)c(Cl)c3)nc3ccccc23)CC1
MST [1]: 0.7 days | MST ([3]; 40 mg/kg): 7.5 days and 7.3 days | MST [26]: 23.9 days and 27.9 days | No. of cured ([10]; 320 mg/kg): 5 and 4 | No. of cured [6]: 5 | SD90 [7]: 8.4 mg/kg/day | MST [8]: 9.1 days | Ratio [37]: 8.9

CCN(CC)CCNc1nc(Nc2ccc(OC)c(CN(CC)CC)c2)nc2ccccc12
MST [1]: 0.4 days | MST [3]: 2.8 days | MST [5]: 8.6 days | SD90 [7]: 40 mg/kg/day | MST [8]: 5.6 days | No. of survivals [16]: 2 | No. of toxic deaths [20]: 1 | No. of toxic deaths [21]: 1 | Ratio [38]: 1.9 | No. of survivals [17]: 2

CCN(CC)CCNc1nc(Nc2ccc(Cl)c(Cl)c2)nc2ccccc12
MST [3]: 1 days | MST [5]: 7 days | SD90 [7]: 24 mg/kg/day | No. of survivals [16]: 5 | Ratio [39]: 3.1
